Source: patent publication US11021457B2, “Class of isoindolone-imide ring-1,3-dione-2-ene compounds, composition and use thereof” (WIGEN BIOMEDICINE TECHNOLOGY (SHANGHAI) CO., LTD., priority 2017, dated 2021)
pIC50: −log10 of the molar value. Like-named read-outs stand apart in the source and are kept apart here.

Columns and labels:
A549 = assay: Inhibition of tumor cell proliferation, CellTiter-Glo, A549; format: cell-based; conditions: compound concentration 50 μM, 72 hours
Procedure, shortened: (§1)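 Activity is graded from survival at 50 μM: + for 60 to under 90%, ++ for over 30 to 60%, +++ for 30% or less. Survival was measured luminescently (CellTiter-Glo) 72 h after dosing, relative to untreated and blank wells; 2000-10000 cells/well, 37° C, 5% CO2.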

K562 = assay: Inhibition of tumor cell proliferation, CellTiter-Glo, K562; format: cell-based; conditions: compound concentration 50 μM, 72 hours
Procedure, shortened: as §1

SU-DHL6 = assay: Inhibition of tumor cell proliferation, CellTiter-Glo, SU-DHL6; format: cell-based; conditions: compound concentration 50 μM, 72 hours
Procedure, shortened: as §1

LC3B = LC3B (Homo sapiens (Human), UniProt Q9GZQ8); assay: Fluorescence polarization experiment targeting LC3B (GST-LC3B with FITC-labeled peptide)
MDA-MB-453 = assay: Inhibition of tumor cell proliferation, CellTiter-Glo, MDA-MB-453; format: cell-based; conditions: compound concentration 50 μM, 72 hours
Procedure, shortened: as §1

RPMI-8226 = assay: Inhibition of tumor cell proliferation, CellTiter-Glo, RPMI-8226; format: cell-based; conditions: compound concentration 50 μM, 72 hours
Procedure, shortened: as §1

BxPC-3 = assay: Inhibition of tumor cell proliferation, CellTiter-Glo, BxPC-3; format: cell-based; conditions: compound concentration 50 μM, 72 hours
Procedure, shortened: as §1

[1] = GST-LC3B 180 nM, FITC-labeled peptide 18 nM, 25° C.

Row | SMILES | Inhibitory activity against proliferation (cell survival rate) A549 (A549) | Inhibitory activity against proliferation (cell survival rate) K562 (K562) | Inhibitory activity against proliferation (cell survival rate) SU-DHL6 (SU-DHL6) | pIC50 (LC3B; [1]) | Inhibitory activity against proliferation (cell survival rate) MDA-MB-453 (MDA-MB-453) | Inhibitory activity against proliferation (cell survival rate) RPMI-8226 (RPMI-8226) | Inhibitory activity against proliferation (cell survival rate) BxPC-3 (BxPC-3) | cell survival rate (% of control) at 50 µM (A549; Homo sapiens, A549, read-out: Inhibitory activity against proliferation (cell survival rate) A549) | cell survival rate (%) at 50 µM (K562; Homo sapiens, K562, read-out: Inhibitory activity against proliferation (cell survival rate) K562) | cell survival rate (% of control) at 50 µM (SU-DHL6; Homo sapiens, SU-DHL-6, read-out: Inhibitory activity against proliferation (cell survival rate) SU-DHL6) | pIC50 (LC3B) | cell survival rate (%) at 50 µM (MDA-MB-453; Homo sapiens, MDA-MB-453, read-out: Inhibitory activity against proliferation (cell survival rate) MDA-MB-453) | cell survival rate (% of control) at 50 µM (RPMI-8226; Homo sapiens, RPMI-8226, read-out: Inhibitory activity against proliferation (cell survival rate) RPMI-8226) | cell survival rate (%) at 50 µM (BxPC-3; Homo sapiens, BXPC-3, read-out: Inhibitory activity against proliferation (cell survival rate) BxPC-3)
1 | O=C1CCC(N2Cc3c(NC=C4C(=O)CC(c5c(F)cccc5Cl)CC4=O)cccc3C2=O)C(=O)N1 (stereo not drawn) [Compound 147] | +++ (survival rate (%)≤30) | +++ (survival rate (%)≤30) | +++ (survival rate (%)≤30) | > 5.52 | ++ (30<survival rate (%)≤60) | +++ (survival rate (%)≤30) | ++ (30<survival rate (%)≤60) |  |  |  |  |  |  | 
2 | O=C1CCC(N2Cc3c(NC=C4C(=O)CC(c5cc(O)ccc5Br)CC4=O)cccc3C2=O)C(=O)N1 (stereo not drawn) [Compound 148] | +++ (survival rate (%)≤30) | ++ (30<survival rate (%)≤60) | +++ (survival rate (%)≤30) | > 5.52 | +++ (survival rate (%)≤30) | ++ (30<survival rate (%)≤60) | + (60≤survival rate (%)<90) |  |  |  |  |  |  | 
3 | O=C1CCC(N2Cc3c(NC=C4C(=O)CC(c5cc6[nH]ccc6cc5Br)CC4=O)cccc3C2=O)C(=O)N1 (stereo not drawn) [Compound 149] | + (60≤survival rate (%)<90) | +++ (survival rate (%)≤30) | +++ (survival rate (%)≤30) | > 5.52 | +++ (survival rate (%)≤30) | +++ (survival rate (%)≤30) | + (60≤survival rate (%)<90) |  |  |  |  |  |  | 
4 | O=C1CCC(N2Cc3c(NC=C4C(=O)CC(c5c[nH]c6cccc(Cl)c56)CC4=O)cccc3C2=O)C(=O)N1 (stereo not drawn) [Compound 150] | +++ (survival rate (%)≤30) | ++ (30<survival rate (%)≤60) | +++ (survival rate (%)≤30) | > 5.52 | +++ (survival rate (%)≤30) | ++ (30<survival rate (%)≤60) | + (60≤survival rate (%)<90) |  |  |  |  |  |  | 
5 | O=C1CCC(N2Cc3c(NC=C4C(=O)CC(c5cc6[nH]ccc6cc5Cl)CC4=O)cccc3C2=O)C(=O)N1 (stereo not drawn) [Compound 151] | + (60≤survival rate (%)<90) | +++ (survival rate (%)≤30) | +++ (survival rate (%)≤30) | > 5.52 | +++ (survival rate (%)≤30) | +++ (survival rate (%)≤30) | + (60≤survival rate (%)<90) |  |  |  |  |  |  | 
6 | O=C1CCC(N2Cc3c(NC=C4C(=O)CC(c5c(Cl)ccc6[nH]ccc56)CC4=O)cccc3C2=O)C(=O)N1 (stereo not drawn) [Compound 152] | +++ (survival rate (%)≤30) | +++ (survival rate (%)≤30) | +++ (survival rate (%)≤30) | > 5.52 | ++ (30<survival rate (%)≤60) | +++ (survival rate (%)≤30) | ++ (30<survival rate (%)≤60) |  |  |  |  |  |  | 
7 | COc1ccc(C2CC(=O)C(=CNc3cccc4c3CN(C3CCC(=O)NC3=O)C4=O)C(=O)C2)c(F)c1F (stereo not drawn) [Compound 153] | +++ (survival rate (%)≤30) | ++ (30<survival rate (%)≤60) | +++ (survival rate (%)≤30) | > 5.52 | +++ (survival rate (%)≤30) | ++ (30<survival rate (%)≤60) | + (60≤survival rate (%)<90) |  |  |  |  |  |  | 
8 | O=C1CCC(N2Cc3c(NC=C4C(=O)CC(c5c(F)c(Cl)cc(Cl)c5Cl)CC4=O)cccc3C2=O)C(=O)N1 (stereo not drawn) [Compound 154] | + (60≤survival rate (%)<90) | +++ (survival rate (%)≤30) | +++ (survival rate (%)≤30) | > 5.52 | +++ (survival rate (%)≤30) | +++ (survival rate (%)≤30) | + (60≤survival rate (%)<90) |  |  |  |  |  |  | 
9 | O=C1CCC(N2Cc3c(NC=C4C(=O)CC(c5ccccc5N5CCOCC5)CC4=O)cccc3C2=O)C(=O)N1 (stereo not drawn) [Compound 155] | +++ (survival rate (%)≤30) | ++ (30<survival rate (%)≤60) | +++ (survival rate (%)≤30) | > 5.52 | +++ (survival rate (%)≤30) | ++ (30<survival rate (%)≤60) | + (60≤survival rate (%)<90) |  |  |  |  |  |  | 
10 | CC(=O)Nc1ccccc1C1CC(=O)C(=CNc2cccc3c2CN(C2CCC(=O)NC2=O)C3=O)C(=O)C1 (stereo not drawn) [Compound 156] | + (60≤survival rate (%)<90) | +++ (survival rate (%)≤30) | +++ (survival rate (%)≤30) | > 5.52 | +++ (survival rate (%)≤30) | +++ (survival rate (%)≤30) | + (60≤survival rate (%)<90) |  |  |  |  |  |  | 
11 | O=C1CCC(N2Cc3c(NC(=O)CN4CCN(CCNC=C5C(=O)CC(c6ccccc6Br)CC5=O)CC4)cccc3C2=O)C(=O)N1 (stereo not drawn) [Compound 157] |  |  |  |  |  |  |  | ≤ 30% | ≤ 30% | ≤ 30% | > 5.52 | 30 to 60% | ≤ 30% | 30 to 60%
12 | O=C1CCC(N2Cc3c(NC(=O)CN4CCN(CCNC=C5C(=O)CC(c6c(Cl)ccc(C(F)(F)F)c6Cl)CC5=O)CC4)cccc3C2=O)C(=O)N1 (stereo not drawn) [Compound 158] | +++ (survival rate (%)≤30) | ++ (30<survival rate (%)≤60) | +++ (survival rate (%)≤30) | > 5.52 | +++ (survival rate (%)≤30) | ++ (30<survival rate (%)≤60) | + (60≤survival rate (%)<90) |  |  |  |  |  |  | 
